Data: publication PMC11051198, “Synthesis and Late-Stage Modification of (−)-Doliculide Derivatives Using Matteson’s Homologation Approach” (Marine Drugs, 2024)

Assays:
Format in all cases: cell-based
[1] = tested on: HepG2; test: MTT cytotoxicity assay, HepG2; settings: HepG2 human hepatocellular carcinoma, 5 d incubation, 37 °C, 5% CO2, DMEM + 10% FBS, mean ± SD of two independent measurements
Method: (§1) The cell cultures were cultivated at 37 °C under an atmosphere containing 5% CO2. Before usage, Dulbecco’s Modified Eagle Medium (DMEM) from Gibco (Thermo Fisher Scientific) was supplemented with 10% fetal bovine serum (FBS) from Gibco. Cells were used between passage 5 and 30 and were split separately for at least two passages to obtain biological repeats. Cells were washed with PBS and 0.5 mL trypsin was added before treatment. Cells were then incubated for 5 min before adding 10 mL medium containing 10% FBS. Per well, 120 µL cell suspension 5 × 10^4 cells/mL (CHO-K1, HCT-116. U-2 OS, KB3.1) or 1 × 10^5 cells/mL (HepG2) cells were seeded in transparent 96-well cell bind plate and incubated for 2 h at 37 °C and an atmosphere of 5% CO2. Each compound was tested in a serial dilution so that the starting concentration is 111 µg/mL, which is diluted by 1:3 as well as the internal solvent control prepared in DMEM with 10% FBS. After 5 d incubation at 37 °C and an atmosphere of 5% CO2, 20 μL of 5 mg/mL MTT (thiazolyl blue tetrazolium bromide) in PBS was added per well and cells were further incubated until coloration of the cells. The medium was then discarded and 100 μL 2-propanol/10 N HCl (250:1) added to the cells. The plates were analyzed by measuring the absorbance at 570 nm and 630 nm as reference using a microplate reader Infinite® 200 Pro from Tecan (Männedorf, Switzerland). Absorption is then converted to cell viability expressed as percentage relative to the respective solvent control. The calculated percentage of growth inhibition were determined by sigmoidal curve fitting using GraphPad (Boston, MA, USA) Prism software (version 10.0.2). Two independent measurements were generated for mean and standard deviation.

[2] = tested on: CHO-K1; test: MTT cytotoxicity assay, CHO-K1; settings: CHO-K1 mutagenized Chinese hamster ovary, 5 d incubation, 37 °C, 5% CO2, DMEM + 10% FBS, mean ± SD of two independent measurements
Method: as §1

[3] = tested on: HCT-116; test: MTT cytotoxicity assay, HCT-116; settings: HCT-116 human colon carcinoma, 5 d incubation, 37 °C, 5% CO2, DMEM + 10% FBS, mean ± SD of two independent measurements
Method: as §1

[4] = tested on: U-2 OS; test: MTT cytotoxicity assay, U-2 OS; settings: U-2 OS human bone osteosarcoma, 5 d incubation, 37 °C, 5% CO2, DMEM + 10% FBS, mean ± SD of two independent measurements
Method: as §1

[5] = tested on: KB3.1; test: MTT cytotoxicity assay, KB3.1; settings: KB3.1 human epidermoid carcinoma cell line, 5 d incubation, 37 °C, 5% CO2, DMEM + 10% FBS, mean ± SD of two independent measurements
Method: as §1

[6] = ≤ values: individual results varied widely, given as a range

Row | SMILES | IC50 [1] | IC50 [2] | IC50 [3, 6] | IC50 [4, 6] | IC50 [5, 6] | IC50 [3] | IC50 [4] | IC50 [5]
1 | C[C@H]1C[C@@H](C)[C@@H](O)C[C@@H](CC#C[Si](C)(C)C)OC(=O)[C@@H](Cc2ccc(O)c(I)c2)N(C)C(=O)CNC(=O)[C@@H](C)C1 [Compound 8a, (3R,9S,11S,13R,14S,16R)-14-Hydroxy-3-(4-hydroxy-3-iodobenzyl)-4,9,11,13-tetramethyl-16-[3-(trimethylsilyl)prop-2-yn-1-yl]-1-oxa-4,7-diazacyclohexadecane-2,5,8-trione] | 20000 ± 4500 nM | 380 ± 44 nM | 8 ± 7.3 nM | 336 ± 146 nM | ≤ 115 nM | – | – | –
2 | C=CC[C@@H]1C[C@H](O)[C@H](C)C[C@H](C)C[C@H](C)C(=O)NCC(=O)N(C)[C@H](Cc2ccc(O)c(I)c2)C(=O)O1 [Compound 8b, (3R,9S,11S,13R,14S,16R)-16-Allyl-14-hydroxy-3-(4-hydroxy-3-iodobenzyl)-4,9,11,13-tetramethyl-1-oxa-4,7-diazacyclohexadecane-2,5,8-trione] | > 60200 nM | 264 ± 13 nM | 16 ± 8 nM | 521 ± 488 nM | 103 ± 65 nM | – | – | –
3 | C#CC[C@@H]1C[C@H](O)[C@H](C)C[C@H](C)C[C@H](C)C(=O)NCC(=O)N(C)[C@H](Cc2ccc(O)c(I)c2)C(=O)O1 [Compound 8c, (3R,9S,11S,13R,14S,16R)-14-Hydroxy-3-(4-hydroxy-3-iodobenzyl)-4,9,11,13-tetramethyl-16-(prop-2-yn-1-yl)-1-oxa-4,7-diazacyclohexadecane-2,5,8-trione] | 147 ± 65 nM | 474 ± 147 nM | 65 ± 16 nM | 49 ± 33 nM | 114 ± 49 nM | – | – | –
4 | C[C@H]1C[C@@H](C)[C@@H](O)C[C@@H](Cc2cn(Cc3ccccc3)nn2)OC(=O)[C@@H](Cc2ccc(O)c(I)c2)N(C)C(=O)CNC(=O)[C@@H](C)C1 [Compound 9a, (3R,9S,11S,13R,14S,16R)-16-[(1-Benzyl-1H-1,2,3-triazol-4-yl)methyl]-14-hydroxy-3-(4-hydroxy-3-iodobenzyl)-4,9,11,13-tetramethyl-1-oxa-4,7-diazacyclohexadecane-2,5,8-trione] | > 49600 nM | 24 ± 9 nM | 309 ± 81 nM | ≤ 80 nM | 47 ± 13 nM | – | – | –
5 | CCCCCn1cc(C[C@@H]2C[C@H](O)[C@H](C)C[C@H](C)C[C@H](C)C(=O)NCC(=O)N(C)[C@H](Cc3ccc(O)c(I)c3)C(=O)O2)nn1 [Compound 9b, (3R,9S,11S,13R,14S,16R)-14-hydroxy-3-(4-hydroxy-3-iodobenzyl)-4,9,11,13-tetramethyl-16-((1-pentyl-1H-1,2,3-triazol-4-yl)methyl)-1-oxa-4,7-diazacyclohexadecane-2,5,8-trione] | – | 69 ± 12 nM | ≤ 110 nM | ≤ 110 nM | 41 ± 14 nM | – | – | –
6 | C[C@H]1C[C@@H](C)[C@@H](O)C[C@@H](Cc2cn(CCOCCOCC(=O)O)nn2)OC(=O)[C@@H](Cc2ccc(O)c(I)c2)N(C)C(=O)CNC(=O)[C@@H](C)C1 [Compound 9d, 2-{2-[2-(4-{[(3R,9S,11S,13R,14S,16R)-14-Hydroxy-3-(4-hydroxy-3-iodobenzyl)-4,9,11,13-tetramethyl-2,5,8-trioxo-1-oxa-4,7-diazacyclohexadecan-16-yl]methyl}-1H-1,2,3-triazol-1-yl)ethoxy]ethoxy}acetic Acid] | > 46200 nM | > 46200 nM | – | – | – | > 46200 nM | > 46200 nM | > 46200 nM
7 | C[C@H]1C[C@@H](C)[C@@H](O)C[C@@H](Cc2cn(CCOCCOCCO)nn2)OC(=O)[C@@H](Cc2ccc(O)c(I)c2)N(C)C(=O)CNC(=O)[C@@H](C)C1 [Compound 9e, (3R,9S,11S,13R,14S,16R)-14-Hydroxy-3-(4-hydroxy-3-iodobenzyl)-16-((1-(2-(2-(2-hydroxyethoxy)ethoxy)ethyl)-1H-1,2,3-triazol-4-yl)methyl)-4,9,11,13-tetramethyl-1-oxa-4,7-diazacyclohexadecane-2,5,8-trione] | > 47000 nM | > 47000 nM | – | – | – | 8550 ± 1140 nM | 23000 ± 4400 nM | 10500 ± 300 nM
8 | C[C@H]1C[C@@H](C)[C@@H](O)C[C@@H](Cc2cn(CCOCCOCCNC(=O)OC(C)(C)C)nn2)OC(=O)[C@@H](Cc2ccc(O)c(I)c2)N(C)C(=O)CNC(=O)[C@@H](C)C1 [Compound 9f, tert-Butyl (2-{2-[2-(4-{[(3R,9S,11S,13R,14S,16R)-14-hydroxy-3-(4-hydroxy-3-iodobenzyl)-4,9,11,13-tetramethyl-2,5,8-trioxo-1-oxa-4,7-diazacyclohexadecan-16-yl]methyl}-1H-1,2,3-triazol-1-yl)ethoxy]ethoxy}ethyl)carbamate] | > 41700 nM | 6380 ± 2810 nM | 86 ± 79 nM | – | 722 ± 180 nM | – | 1560 ± 670 nM | –
9 | C[C@H]1C[C@@H](C)[C@@H](O)C[C@@H](Cc2cn(CCOCCOCCOCCNC(=O)OC(C)(C)C)nn2)OC(=O)[C@@H](Cc2ccc(O)c(I)c2)N(C)C(=O)CNC(=O)[C@@H](C)C1 [Compound 9g, tert-Butyl [2-(2-{2-[2-(4-{[(3R,9S,11S,13R,14S,16R)-14-hydroxy-3-(4-hydroxy-3-iodobenzyl)-4,9,11,13-tetramethyl-2,5,8-trioxo-1-oxa-4,7-diazacyclohexadecan-16-yl]methyl}-1H-1,2,3-triazol-1-yl)ethoxy]ethoxy}ethoxy)ethyl]carbamate] | > 39700 nM | 12900 ± 3000 nM | 432 ± 140 nM | – | – | – | 2940 ± 1750 nM | 3290 ± 1390 nM
10 | C[C@H]1C[C@@H](C)[C@@H](O)C[C@@H](CC#Cc2ccccc2)OC(=O)[C@@H](Cc2ccc(O)c(I)c2)N(C)C(=O)CNC(=O)[C@@H](C)C1 [Compound 10a, (3R,9S,11S,13R,14S,16R)-14-Hydroxy-3-(4-hydroxy-3-iodobenzyl)-4,9,11,13-tetramethyl-16-(3-phenylprop-2-yn-1-yl)-1-oxa-4,7-diazacyclohexadecane-2,5,8-trione] | 15500 ± 300 nM | 247 ± 145 nM | 14.5 ± 0.6 nM | 683 ± 87 nM | 49 ± 29 nM | – | – | –
11 | COc1ccc(C#CC[C@@H]2C[C@H](O)[C@H](C)C[C@H](C)C[C@H](C)C(=O)NCC(=O)N(C)[C@H](Cc3ccc(O)c(I)c3)C(=O)O2)cc1 [Compound 10b, (3R,9S,11S,13R,14S,16R)-14-Hydroxy-3-(4-hydroxy-3-iodobenzyl)-16-[3-(4-methoxyphenyl)prop-2-yn-1-yl]-4,9,11,13-tetramethyl-1-oxa-4,7-diazacyclohexadecane-2,5,8-trione] | > 51500 nM | 1460 ± 280 nM | 153 ± 56 nM | – | – | – | 1880 ± 110 nM | 459000 ± 111000 nM
12 | C[C@H]1C[C@@H](C)[C@@H](O)C[C@@H](CC#Cc2ccc([N+](=O)[O-])cc2)OC(=O)[C@@H](Cc2ccc(O)c(I)c2)N(C)C(=O)CNC(=O)[C@@H](C)C1 [Compound 10c, (3R,9S,11S,13R,14S,16R)-14-Hydroxy-3-(4-hydroxy-3-iodobenzyl)-4,9,11,13-tetramethyl-16-[3-(4-nitrophenyl)prop-2-yn-1-yl]-1-oxa-4,7-diazacyclohexadecane-2,5,8-trione] | > 50400 nM | 586 ± 205 nM | 10 ± 3 nM | 491 ± 95 nM | 98 ± 41 nM | – | – | –
13 | CCCCSCCC[C@@H]1C[C@H](O)[C@H](C)C[C@H](C)C[C@H](C)C(=O)NCC(=O)N(C)[C@H](Cc2ccc(O)c(I)c2)C(=O)O1 [Compound 11b, (3R,9S,11S,13R,14S,16R)-16-[3-(Butylthio)propyl]-14-hydroxy-3-(4-hydroxy-3-iodobenzyl)-4,9,11,13-tetramethyl-1-oxa-4,7-diazacyclohexadecane-2,5,8-trione] | > 52500 nM | 142 ± 85 nM | – | 238 ± 10 nM | 28 ± 3 nM | > 52500 nM | – | –
14 | C[C@H]1C[C@@H](C)[C@@H](O)C[C@@H](CCCSCc2ccccc2)OC(=O)[C@@H](Cc2ccc(O)c(I)c2)N(C)C(=O)CNC(=O)[C@@H](C)C1 [Compound 11c, (3R,9S,11S,13R,14S,16R)-16-[3-(Benzylthio)propyl]-14-hydroxy-3-(4-hydroxy-3-iodobenzyl)-4,9,11,13-tetramethyl-1-oxa-4,7-diazacyclohexadecane-2,5,8-trione] | > 50000 nM | 391 ± 122 nM | 10.8 ± 1.2 nM | 582 ± 68 nM | 37 ± 1 nM | – | – | –
